Paper PMC12814364 (Journal of the American Chemical Society, 2025)
“Also recorded” adds a separate entry of the source.

Target: HBHA110–199 (Mycobacterium tuberculosis, UniProt P9WIP9)
Assay: ITC binding of HS hexadecasaccharides with HBHA110–199
Details: for n (sugar-to-protein binding ratio) / ΔG / ΔH / –TΔS: 25 °C, Tris buffer pH 7.6; for Kd: read-out: dissociation constant, KD
[1] = Tris buffer pH 7.6, 25 °C, two trials, average ± standard deviation

Sequence of HBHA110–199 (P9WIP9 110-199): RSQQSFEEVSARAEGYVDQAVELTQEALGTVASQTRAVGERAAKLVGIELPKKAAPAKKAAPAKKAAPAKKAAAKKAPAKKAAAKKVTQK

| Structure (SMILES) | n (sugar-to-protein binding ratio) | ΔG | ΔH [kcal/mol] | –TΔS | Kd [1] [nM] | dissociation constant, KD [1] |
| --- | --- | --- | --- | --- | --- | --- |
| O=C(O)[C@@H]1O[C@@H](O[C@H]2[C@H](O)[C@@H](NS(=O)(=O)O)[C@@H](O[C@H]3[C@H](O)[C@@H](O)[C@H]4OC[C@@H]3O4)O[C@@H]2CO)[C@H](O)[C@@H](O)[C@@H]1O[C@H]1O[C@H](CO)[C@@H](O[C@@H]2O[C@@H](C(=O)O)[C@@H](O[C@H]3O[C@H](CO)[C@@H](O[C@@H]4O[C@@H](C(=O)O)[C@@H](O[C@H]5O[C@H](CO)[C@@H](O[C@@H]6O[C@@H](C(=O)O)[C@@H](O[C@H]7O[C@H](CO)[C@@H](O[C@@H]8O[C@@H](C(=O)O)[C@@H](O[C@H]9O[C@H](CO)[C@@H](O[C@@H]%10O[C@@H](C(=O)O)[C@@H](O[C@H]%11O[C@H](CO)[C@@H](O[C@@H]%12O[C@@H](C(=O)O)[C@@H](O[C@H]%13O[C@H](CO)[C@@H](O)[C@H](O)[C@H]%13NS(=O)(=O)O)[C@H](O)[C@H]%12O)[C@H](O)[C@H]%11NS(=O)(=O)O)[C@H](O)[C@H]%10O)[C@H](O)[C@H]9NS(=O)(=O)O)[C@H](O)[C@H]8O)[C@H](O)[C@H]7NS(=O)(=O)O)[C@H](O)[C@H]6O)[C@H](O)[C@H]5NS(=O)(=O)O)[C@H](O)[C@H]4O)[C@H](O)[C@H]3NS(=O)(=O)O)[C@H](O)[C@H]2O)[C@H](O)[C@H]1NS(=O)(=O)O [compound 21] | 0.23 ± 0.10 | –6.55 ± 0.06 kcal/mol | 7.76 ± 4.02 | –14.30 ± 3.96 kcal/mol | 16000 ± 1500 |  |
| O=C(O)[C@@H]1O[C@@H](O[C@H]2[C@H](O)[C@@H](NS(=O)(=O)O)[C@@H](O[C@H]3[C@H](O)[C@@H](O)[C@H]4OC[C@@H]3O4)O[C@@H]2COS(=O)(=O)O)[C@H](O)[C@@H](O)[C@@H]1O[C@H]1O[C@H](COS(=O)(=O)O)[C@@H](O[C@@H]2O[C@@H](C(=O)O)[C@@H](O[C@H]3O[C@H](COS(=O)(=O)O)[C@@H](O[C@@H]4O[C@@H](C(=O)O)[C@@H](O[C@H]5O[C@H](COS(=O)(=O)O)[C@@H](O[C@@H]6O[C@@H](C(=O)O)[C@@H](O[C@H]7O[C@H](COS(=O)(=O)O)[C@@H](O[C@@H]8O[C@@H](C(=O)O)[C@@H](O[C@H]9O[C@H](COS(=O)(=O)O)[C@@H](O[C@@H]%10O[C@@H](C(=O)O)[C@@H](O[C@H]%11O[C@H](COS(=O)(=O)O)[C@@H](O[C@@H]%12O[C@@H](C(=O)O)[C@@H](O[C@H]%13O[C@H](COS(=O)(=O)O)[C@@H](O)[C@H](O)[C@H]%13NS(=O)(=O)O)[C@H](O)[C@H]%12O)[C@H](O)[C@H]%11NS(=O)(=O)O)[C@H](O)[C@H]%10O)[C@H](O)[C@H]9NS(=O)(=O)O)[C@H](O)[C@H]8O)[C@H](O)[C@H]7NS(=O)(=O)O)[C@H](O)[C@H]6O)[C@H](O)[C@H]5NS(=O)(=O)O)[C@H](O)[C@H]4O)[C@H](O)[C@H]3NS(=O)(=O)O)[C@H](O)[C@H]2O)[C@H](O)[C@H]1NS(=O)(=O)O [compound 32] | 0.30 ± 0.01 | –7.69 ± 0.08 kcal/mol | 11.50 ± 0.28 | –19.15 ± 0.21 kcal/mol | 2360 ± 300 |  |
| CC(=O)N[C@H]1[C@@H](O[C@H]2[C@H](O)[C@@H](OS(=O)(=O)O)[C@H]3OC[C@@H]2O3)O[C@H](COS(=O)(=O)O)[C@@H](O[C@@H]2O[C@@H](C(=O)O)[C@@H](O[C@H]3O[C@H](COS(=O)(=O)O)[C@@H](O[C@@H]4O[C@@H](C(=O)O)[C@@H](O[C@H]5O[C@H](COS(=O)(=O)O)[C@@H](O[C@@H]6O[C@@H](C(=O)O)[C@@H](O[C@H]7O[C@H](COS(=O)(=O)O)[C@@H](O[C@@H]8O[C@@H](C(=O)O)[C@@H](O[C@H]9O[C@H](COS(=O)(=O)O)[C@@H](O[C@@H]%10O[C@@H](C(=O)O)[C@@H](O[C@H]%11O[C@H](COS(=O)(=O)O)[C@@H](O[C@@H]%12O[C@@H](C(=O)O)[C@@H](O[C@H]%13O[C@H](COS(=O)(=O)O)[C@@H](O[C@@H]%14O[C@@H](C(=O)O)[C@@H](O[C@H]%15O[C@H](COS(=O)(=O)O)[C@@H](O)[C@H](O)[C@H]%15NC(C)=O)[C@H](O)[C@H]%14OS(=O)(=O)O)[C@H](O)[C@H]%13NC(C)=O)[C@H](O)[C@H]%12OS(=O)(=O)O)[C@H](O)[C@H]%11NC(C)=O)[C@H](O)[C@H]%10OS(=O)(=O)O)[C@H](O)[C@H]9NC(C)=O)[C@H](O)[C@H]8OS(=O)(=O)O)[C@H](O)[C@H]7NC(C)=O)[C@H](O)[C@H]6OS(=O)(=O)O)[C@H](O)[C@H]5NC(C)=O)[C@H](O)[C@H]4OS(=O)(=O)O)[C@H](O)[C@H]3NC(C)=O)[C@H](O)[C@H]2OS(=O)(=O)O)[C@@H]1O [compound 23] | 0.27 ± 0.01 | –7.62 ± 0.02 kcal/mol | 15.00 ± 0.00 | –22.60 ± 0.00 kcal/mol | 2630 ± 110 |  |
| CC(=O)N[C@H]1[C@@H](O[C@H]2[C@H](O)[C@@H](OS(=O)(=O)O)[C@H]3OC[C@@H]2O3)O[C@H](CO)[C@@H](O[C@@H]2O[C@@H](C(=O)O)[C@@H](O[C@H]3O[C@H](CO)[C@@H](O[C@@H]4O[C@@H](C(=O)O)[C@@H](O[C@H]5O[C@H](CO)[C@@H](O[C@@H]6O[C@@H](C(=O)O)[C@@H](O[C@H]7O[C@H](CO)[C@@H](O[C@@H]8O[C@@H](C(=O)O)[C@@H](O[C@H]9O[C@H](CO)[C@@H](O[C@@H]%10O[C@@H](C(=O)O)[C@@H](O[C@H]%11O[C@H](CO)[C@@H](O[C@@H]%12O[C@@H](C(=O)O)[C@@H](O[C@H]%13O[C@H](CO)[C@@H](O[C@@H]%14O[C@@H](C(=O)O)[C@@H](O[C@H]%15O[C@H](CO)[C@@H](O)[C@H](O)[C@H]%15NC(C)=O)[C@H](O)[C@H]%14OS(=O)(=O)O)[C@H](O)[C@H]%13NC(C)=O)[C@H](O)[C@H]%12OS(=O)(=O)O)[C@H](O)[C@H]%11NC(C)=O)[C@H](O)[C@H]%10OS(=O)(=O)O)[C@H](O)[C@H]9NC(C)=O)[C@H](O)[C@H]8OS(=O)(=O)O)[C@H](O)[C@H]7NC(C)=O)[C@H](O)[C@H]6OS(=O)(=O)O)[C@H](O)[C@H]5NC(C)=O)[C@H](O)[C@H]4OS(=O)(=O)O)[C@H](O)[C@H]3NC(C)=O)[C@H](O)[C@H]2OS(=O)(=O)O)[C@@H]1O [compound 26] |  |  |  |  |  | no detectable binding; also recorded: no binding detected |
